Reference: ChEMBL document CHEMBL6083251, “"Pseudosubstrate Envelope"/Free Energy Perturbation-Guided Design and Mechanistic Investigations of Benzothiazole HIV Capsid Modulators with High Ligand Efficiency” (J Med Chem, 2024)
The source made the active and inactive calls. The calls are words filed in the database; no cut-off is given here.

System: Human immunodeficiency virus 1
Experiment: Antiviral activity against pseudotyped HIV-1 expressing luciferase-reporter transfected in HEK293T cells assessed as increase in p24 level in progeny virions by ELISA analysis
Format: functional, organism-based
Settings: not given
In the case of CN(C(=O)[C@H](Cc1cc(F)cc(F)c1)NC(=O)Cc1c[nH]c2cc(F)c(F)cc12)c1ccc2scnc2c1, the Activity is reported as “Active”.
For CN(C(=O)[C@H](Cc1cc(F)cc(F)c1)NC(=O)Cc1c[nH]c2ccc([N+](=O)[O-])cc12)c1ccc2scnc2c1, the Activity was “Active”.
In the case of CN(C(=O)[C@H](Cc1cc(F)cc(F)c1)NC(=O)Cc1c[nH]c2ccc(N)cc12)c1ccc2scnc2c1, the Activity is reported as “inactive”.

Target: Human immunodeficiency virus type 1 reverse transcriptase (Human immunodeficiency virus 1) (UniProt Q72547)
Experiment: Inhibition of HIV1 reverse transcriptase at 24 nM incubated for 1 hr by ELISA analysis
Settings: not given
With CN(C(=O)[C@H](Cc1cc(F)cc(F)c1)NC(=O)Cc1c[nH]c2ccc(N)cc12)c1ccc2scnc2c1 the inhibition was “inactive”.

System: not listed separately
Experiment: Metabolic stability in human liver microsomes assessed as intrinsic clearance at 1 uM incubated for 60 mins by LC-MS/MS analysis
Format: ADME, Microsome
Settings: read-out: CLH
In the case of CN(C(=O)[C@H](Cc1cc(F)cc(F)c1)NC(=O)Cc1c[nH]c2ccc(N)cc12)c1ccc2scnc2c1, the CLint scaled at 1 µM is reported as 20.2 mL/min/kg.

System: not listed separately
Experiment: Selectivity ratio of EC50 for wild type HIV-1 IIIB infected in human MT4 cells to EC50 for HIV-2 ROD infected in human MT-4 cells assessed as protection against virus-induced cytopathic effect incubated for 5 days by spectrophotometric based MTT assay
Format: functional
Settings: time 5 day
In the case of CN(C(=O)[C@H](Cc1cc(F)cc(F)c1)NC(=O)Cc1c[nH]c2cc(F)c(F)cc12)c1ccc2scnc2c1, the “Ratio EC50” value is reported as 0.05.
In the case of CN(C(=O)[C@H](Cc1cc(F)cc(F)c1)NC(=O)Cc1c[nH]c2ccc([N+](=O)[O-])cc12)c1ccc2scnc2c1, the “Ratio EC50” value is reported as 0.05.
In the case of CN(C(=O)[C@H](Cc1cc(F)cc(F)c1)NC(=O)Cc1c[nH]c2ccc(N)cc12)c1ccc2scnc2c1, the “Ratio EC50” value is reported as 0.05.

Target: Structural capsid protein (Human immunodeficiency virus 1) (UniProt Q76129)
Sequence (Q76129 as listed by the source): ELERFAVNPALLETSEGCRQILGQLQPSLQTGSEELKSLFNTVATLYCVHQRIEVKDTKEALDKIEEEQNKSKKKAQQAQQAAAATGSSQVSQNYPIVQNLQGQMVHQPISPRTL
Experiment: Binding affinity to HIV-1 hexameric capsid protein assessed as reduction in NUP153 binding to capsid protein by competition assay based SPR analysis
Settings: filed as modulator
In the case of CN(C(=O)[C@H](Cc1cc(F)cc(F)c1)NC(=O)Cc1c[nH]c2cc(F)c(F)cc12)c1ccc2scnc2c1, the Activity is reported as “Active”.
With CN(C(=O)[C@H](Cc1cc(F)cc(F)c1)NC(=O)Cc1c[nH]c2ccc([N+](=O)[O-])cc12)c1ccc2scnc2c1 the Activity was “Active”.
With CN(C(=O)[C@H](Cc1cc(F)cc(F)c1)NC(=O)Cc1c[nH]c2ccc(N)cc12)c1ccc2scnc2c1 the Activity was “Active”.

System: Human immunodeficiency virus 1
Experiment: Antiviral activity against pseudotyped HIV-1 expressing luciferase-reporter transfected in HEK293T cells assessed as viral inhibition at early stage incubated for 48 hrs by Single-round infection assay
Format: functional, organism-based
Settings: not given
For CN(C(=O)[C@H](Cc1cc(F)cc(F)c1)NC(=O)Cc1c[nH]c2cc(F)c(F)cc12)c1ccc2scnc2c1, the Activity was “Active”.
With CN(C(=O)[C@H](Cc1cc(F)cc(F)c1)NC(=O)Cc1c[nH]c2ccc([N+](=O)[O-])cc12)c1ccc2scnc2c1 the Activity was “Active”.
With CN(C(=O)[C@H](Cc1cc(F)cc(F)c1)NC(=O)Cc1c[nH]c2ccc(N)cc12)c1ccc2scnc2c1 the Activity was “Active”.

Target: Human immunodeficiency virus type 1 reverse transcriptase (Human immunodeficiency virus 1) (UniProt Q72547)
Experiment: Inhibition of HIV1 reverse transcriptase at 20 nM incubated for 1 hr by ELISA analysis
Settings: not given
For CN(C(=O)[C@H](Cc1cc(F)cc(F)c1)NC(=O)Cc1c[nH]c2cc(F)c(F)cc12)c1ccc2scnc2c1, the inhibition was “inactive”.

System: MT4
Experiment: Cytotoxicity against human MT4 cells assessed as reduction in cell viability incubated for 5 days by spectrophotometric based MTT assay
Format: functional
Settings: MT4, 120 h, time 5 day
Work on CN(C(=O)[C@H](Cc1cc(F)cc(F)c1)NC(=O)Cc1c[nH]c2cc(F)c(F)cc12)c1ccc2scnc2c1 yielded a CC50 of 23600 nM.
In the case of CN(C(=O)[C@H](Cc1cc(F)cc(F)c1)NC(=O)Cc1c[nH]c2ccc([N+](=O)[O-])cc12)c1ccc2scnc2c1, the CC50 is reported as 28400 nM.
For CN(C(=O)[C@H](Cc1cc(F)cc(F)c1)NC(=O)Cc1c[nH]c2ccc(N)cc12)c1ccc2scnc2c1, the CC50 was 192000 nM.

Target: Human immunodeficiency virus type 1 reverse transcriptase (Human immunodeficiency virus 1) (UniProt Q72547)
Experiment: Inhibition of HIV1 reverse transcriptase at 13 nM incubated for 1 hr by ELISA analysis
Settings: not given
With CN(C(=O)[C@H](Cc1cc(F)cc(F)c1)NC(=O)Cc1c[nH]c2ccc([N+](=O)[O-])cc12)c1ccc2scnc2c1 the inhibition was “inactive”.

Target: Structural capsid protein (Human immunodeficiency virus 1) (UniProt Q76129)
Experiment: Binding affinity to HIV-1 hexameric capsid protein assessed as reduction in CPSF6 binding to capsid protein by competition assay based SPR analysis
Settings: filed as modulator
In the case of CN(C(=O)[C@H](Cc1cc(F)cc(F)c1)NC(=O)Cc1c[nH]c2cc(F)c(F)cc12)c1ccc2scnc2c1, the Activity is reported as “Active”.
In the case of CN(C(=O)[C@H](Cc1cc(F)cc(F)c1)NC(=O)Cc1c[nH]c2ccc([N+](=O)[O-])cc12)c1ccc2scnc2c1, the Activity is reported as “Active”.
With CN(C(=O)[C@H](Cc1cc(F)cc(F)c1)NC(=O)Cc1c[nH]c2ccc(N)cc12)c1ccc2scnc2c1 the Activity was “Active”.

System: not listed separately
Experiment: Metabolic stability in human liver microsomes assessed as half life at 1 uM incubated for 60 mins by LC-MS/MS analysis
Format: ADME, Microsome
Settings: not given
Molecule CN(C(=O)[C@H](Cc1cc(F)cc(F)c1)NC(=O)Cc1c[nH]c2ccc(N)cc12)c1ccc2scnc2c1 has a half-life at 1 µM of 1.14 h.

Target: T1, Structural capsid protein (Human immunodeficiency virus 1, UniProt Q76129)
T1 sequence (Q76129 whole entry): as the sequence (Q76129 as listed by the source) above
Experiment: Binding affinity to monomeric HIV-1 NL4.3 capsid protein assessed as dissociation constant by SPR assay
Settings: not given
CN(C(=O)[C@H](Cc1cc(F)cc(F)c1)NC(=O)Cc1c[nH]c2cc(F)c(F)cc12)c1ccc2scnc2c1 gave a Kd of 267 nM.
For CN(C(=O)[C@H](Cc1cc(F)cc(F)c1)NC(=O)Cc1c[nH]c2ccc([N+](=O)[O-])cc12)c1ccc2scnc2c1, the Kd was 153 nM.
With CN(C(=O)[C@H](Cc1cc(F)cc(F)c1)NC(=O)Cc1c[nH]c2ccc(N)cc12)c1ccc2scnc2c1 the Kd was 196 nM.

System: not listed separately
Experiment: Selectivity index, ratio of CC50 for human MT4 cells to EC50 for HIV-2 ROD infected in human MT-4 cells
Format: toxicity, cell-based
Settings: read-out: Selectivity Index
Molecule CN(C(=O)[C@H](Cc1cc(F)cc(F)c1)NC(=O)Cc1c[nH]c2cc(F)c(F)cc12)c1ccc2scnc2c1 has a selectivity ratio of 116.
In the case of CN(C(=O)[C@H](Cc1cc(F)cc(F)c1)NC(=O)Cc1c[nH]c2ccc([N+](=O)[O-])cc12)c1ccc2scnc2c1, the selectivity ratio is reported as 220.
For CN(C(=O)[C@H](Cc1cc(F)cc(F)c1)NC(=O)Cc1c[nH]c2ccc(N)cc12)c1ccc2scnc2c1, the selectivity ratio was 831.

System: Human immunodeficiency virus 2
Experiment: Anti-HIV activity against HIV-2 ROD infected in human MT-4 cells assessed as protection against virus-induced cytopathic effect incubated for 5 days by spectrophotometric based MTT assay
Format: functional, organism-based
Settings: Human immunodeficiency virus 2, ROD, MT4, 120 h
With CN(C(=O)[C@H](Cc1cc(F)cc(F)c1)NC(=O)Cc1c[nH]c2cc(F)c(F)cc12)c1ccc2scnc2c1 the EC50 was 204 nM.
Molecule CN(C(=O)[C@H](Cc1cc(F)cc(F)c1)NC(=O)Cc1c[nH]c2ccc([N+](=O)[O-])cc12)c1ccc2scnc2c1 has an EC50 of 129 nM.
CN(C(=O)[C@H](Cc1cc(F)cc(F)c1)NC(=O)Cc1c[nH]c2ccc(N)cc12)c1ccc2scnc2c1 gave an EC50 of 231 nM.

System: Human immunodeficiency virus 1
Experiment: Anti-HIV activity against wild type HIV-1 IIIB infected in human MT4 cells assessed as protection against virus-induced cytopathic effect incubated for 5 days by spectrophotometric based MTT assay
Format: functional, organism-based
Settings: Human immunodeficiency virus 1, IIIB, MT4, 120 h
In the case of CN(C(=O)[C@H](Cc1cc(F)cc(F)c1)NC(=O)Cc1c[nH]c2cc(F)c(F)cc12)c1ccc2scnc2c1, the EC50 is reported as 9.81 nM.
Work on CN(C(=O)[C@H](Cc1cc(F)cc(F)c1)NC(=O)Cc1c[nH]c2ccc([N+](=O)[O-])cc12)c1ccc2scnc2c1 yielded an EC50 of 6.37 nM.
CN(C(=O)[C@H](Cc1cc(F)cc(F)c1)NC(=O)Cc1c[nH]c2ccc(N)cc12)c1ccc2scnc2c1 showed an EC50 of 11.9 nM.

System: not listed separately
Experiment: Selectivity index, ratio of CC50 for human MT4 cells to EC50 for wild type HIV-1 IIIB infected in human MT4 cells
Format: toxicity, cell-based
Settings: read-out: Selectivity Index
CN(C(=O)[C@H](Cc1cc(F)cc(F)c1)NC(=O)Cc1c[nH]c2cc(F)c(F)cc12)c1ccc2scnc2c1 showed a selectivity ratio of 2410.
In the case of CN(C(=O)[C@H](Cc1cc(F)cc(F)c1)NC(=O)Cc1c[nH]c2ccc([N+](=O)[O-])cc12)c1ccc2scnc2c1, the selectivity ratio is reported as 4460.
In the case of CN(C(=O)[C@H](Cc1cc(F)cc(F)c1)NC(=O)Cc1c[nH]c2ccc(N)cc12)c1ccc2scnc2c1, the selectivity ratio is reported as 16100.

Target: T1, Structural capsid protein
Experiment: Binding affinity to hexameric HIV-1 NL4.3 capsid protein assessed as dissociation constant by SPR assay
Settings: not given
CN(C(=O)[C@H](Cc1cc(F)cc(F)c1)NC(=O)Cc1c[nH]c2cc(F)c(F)cc12)c1ccc2scnc2c1 showed a Kd of 305 nM.
In the case of CN(C(=O)[C@H](Cc1cc(F)cc(F)c1)NC(=O)Cc1c[nH]c2ccc([N+](=O)[O-])cc12)c1ccc2scnc2c1, the Kd is reported as 87.9 nM.
For CN(C(=O)[C@H](Cc1cc(F)cc(F)c1)NC(=O)Cc1c[nH]c2ccc(N)cc12)c1ccc2scnc2c1, the Kd was 94.5 nM.

System: Human immunodeficiency virus 1
Experiment: Antiviral activity against pseudotyped HIV-1 expressing luciferase-reporter transfected in HEK293T cells assessed as viral inhibition at late stage incubated for 48 hrs by Single-round infection assay
Format: functional, organism-based
Settings: not given
In the case of CN(C(=O)[C@H](Cc1cc(F)cc(F)c1)NC(=O)Cc1c[nH]c2cc(F)c(F)cc12)c1ccc2scnc2c1, the Activity is reported as “Active”.
For CN(C(=O)[C@H](Cc1cc(F)cc(F)c1)NC(=O)Cc1c[nH]c2ccc([N+](=O)[O-])cc12)c1ccc2scnc2c1, the Activity was “Active”.
With CN(C(=O)[C@H](Cc1cc(F)cc(F)c1)NC(=O)Cc1c[nH]c2ccc(N)cc12)c1ccc2scnc2c1 the Activity was “Active”.
